Holding throughout (format): cell-based, human
One test deals with A549 cells. The test can be described thus: CCK-8 anti-proliferative assay, A549. The note with it: Table 16, comparative compounds 8-1 to 8-23, co-incubated 48 h, read-out: Anti-proliferative activity (IC50 ± standard deviation) A549. How it is done:
(§1) The obtained quinazolinyl-aryl urea derivatives were screened for compounds with optimal activity using the following method.
(§2) Experimental Procedure for Anti-Proliferative Activity Evaluation: The CCK-8 assay was employed. Cells in logarithmic growth phase were harvested, adjusted to appropriate density, and uniformly seeded into 96-well plates using a multichannel pipette (180 μL cell suspension containing complete medium per well, 5,000 cells/well). Blank control wells (containing basal medium, CCK-8 solution, and DMSO only) were set. Cells were incubated at 37° C. under 5% CO2. After 70% confluency was reached, test compounds (target compounds/positive controls) were added at final concentrations of 1, 2, 4, 6, 8, 12, 16, 24, and 30 μM (3 repeated wells per concentration). Compounds were pre-dissolved in DMSO, sterilized, and diluted with medium before adding 20 μL/well. After co-incubation for designated durations, 10 μL CCK-8 solution was added per well followed by 1-4 h incubation (different cells have different incubation times). […] Inhibition rates were calculated as: (ODcontrol−ODtreatment)/ODcontrol×100%. Median inhibitory concentrations (IC50 values) were derived using Origin v8.0 software.
(Tetrazolium assays rely on reduction of a dye to a coloured formazan, in cell work by metabolically active cells.)

Another test concerns T24 cells. Description: CCK-8 anti-proliferative assay, T24. The note with it: Table 16, comparative compounds 8-1 to 8-23, co-incubated 48 h, read-out: Anti-proliferative activity (IC50 ± standard deviation) T24. The source says:
(§3) The obtained quinazolinyl-aryl urea derivatives were screened for compounds with optimal activity using the following method. All cell lines employed in this experiment were of human origin, including: bladder cancer cells: J82, UM-UC-3, T24, 5637, pancreatic cancer cells: BxPC-3, PANC-1, osteosarcoma cells: 143B, MG-63, cervical cancer cells: HeLa, breast cancer cells: MCF-7, NSCLC cells: A549, hepatoblastoma cells: Hep G2, and ovarian cancer cells: SK-OV-3, as well as normal cell lines: immortalized ureteral epithelial cells (SV-HUC-1), embryonic lung fibroblasts (WI-38).
(§4) Experimental Procedure for Anti-Proliferative Activity Evaluation: The CCK-8 assay was employed. Cells in logarithmic growth phase were harvested, adjusted to appropriate density, and uniformly seeded into 96-well plates using a multichannel pipette (180 μL cell suspension containing complete medium per well, 5,000 cells/well). Blank control wells (containing basal medium, CCK-8 solution, and DMSO only) were set. Cells were incubated at 37° C. under 5% CO2. After 70% confluency was reached, test compounds (target compounds/positive controls) were added at final concentrations of 1, 2, 4, 6, 8, 12, 16, 24, and 30 μM (3 repeated wells per concentration). Compounds were pre-dissolved in DMSO, sterilized, and diluted with medium before adding 20 μL/well. After co-incubation for designated durations, 10 μL CCK-8 solution was added per well followed by 1-4 h incubation (different cells have different incubation times). The reaction was terminated, and OD (optical density) values at 450 nm were measured using a microplate reader. Inhibition rates were calculated as: (ODcontrol−ODtreatment)/ODcontrol×100%. Median inhibitory concentrations (IC50 values) were derived using Origin v8.0 software.

Another test relates to MCF-7 cells. The test can be described thus: CCK-8 anti-proliferative assay, MCF-7. Conditions: Table 16, comparative compounds 8-1 to 8-23, co-incubated 48 h, read-out: Anti-proliferative activity (IC50 ± standard deviation) MCF-7. As for the experimental part: as §1, §2
The subject of the next test is Hep G2 cells. Description: CCK-8 anti-proliferative assay, Hep G2. Conditions: Table 16, comparative compounds 8-1 to 8-23, co-incubated 48 h, read-out: Anti-proliferative activity (IC50 ± standard deviation) Hep G2.
Description: as §3, §4

A further test relates to 5637 cells. The test can be described thus: CCK-8 anti-proliferative assay, 5637. The note with it: Table 16, comparative compounds 8-1 to 8-23, co-incubated 48 h, read-out: Anti-proliferative activity (IC50 ± standard deviation) 5637. How it is done:
as §1, §2

In a further test the test system is BxPC-3 cells. Description: CCK-8 anti-proliferative assay, BxPC-3. The note with it: Homo sapiens, BXPC-3; Table 15; comparative compounds; co-incubated 48 h; read-out: Anti-proliferative activity (IC50 ± standard deviation) BxPC-3.
Description: as §3, §4

Another test concerns UM-UC-3 cells. The test can be described thus: CCK-8 anti-proliferative assay, UM-UC-3. Conditions: Homo sapiens, UMUC3; Table 14; comparative compounds; co-incubated 48 h; read-out: Anti-proliferative activity (IC50 ± standard deviation) UM-UC-3. As for the experimental part:
as §1, §2

The next test deals with PANC-1 cells. The test can be described thus: CCK-8 anti-proliferative assay, PANC-1. Conditions: Homo sapiens, PANC-1; Table 15; comparative compounds; co-incubated 48 h; read-out: Anti-proliferative activity (IC50 ± standard deviation) PANC-1.
Description: as §3, §4

For the next test, the system named is MG-63 cells. Description: CCK-8 anti-proliferative assay, MG-63. The note with it: Homo sapiens, MG-63; Table 14; comparative compounds; co-incubated 48 h; read-out: Anti-proliferative activity (IC50 ± standard deviation) MG-63.
Description: as §3, §4

For another test, the system named is SK-OV-3 cells. The test can be described thus: CCK-8 anti-proliferative assay, SK-OV-3. The note with it: Homo sapiens, SK-OV-3; Table 15; comparative compounds; co-incubated 48 h; read-out: Anti-proliferative activity (IC50 ± standard deviation) SK-OV-3. As for the experimental part: as §1, §2
A further test relates to 143B cells. Description: CCK-8 anti-proliferative assay, 143B. Conditions: Homo sapiens, 143B; Table 14; comparative compounds; co-incubated 48 h; read-out: Anti-proliferative activity (IC50 ± standard deviation) 143B.
Description: as §3, §4

Structures are written as SMILES. Like-named read-outs stand apart in the source and are kept apart here. Where only a bound is given, the exact number is not on record here.

For `COc1cc2ncnc(NCc3cccc(NC(=O)Nc4ccccc4Cl)c3)c2cc1OCCCCCCN1CCC(CN2CCN(c3ccccn3)CC2)CC1` [Compound 8-20, reference compound], the IC50 is 22.4 ± 1.01 µM in the test with A549 cells; 18.4 ± 0.81 µM with T24 cells; 20.5 ± 0.38 µM in the test with MCF-7 cells; more than 30 µM in the test on Hep G2 cells; 14.1 ± 0.29 µM in the test with 5637 cells.

For `COc1ccc(NC(=O)Nc2cccc(CNc3ncnc4cc(OC)c(OCCCCCCN5CCC(CN6CCN(c7ccccn7)CC6)CC5)cc34)c2)cc1` [Compound 8-21, reference compound], the concentration for half-maximal inhibition (IC50) with A549 cells is 11.9 ± 0.23 µM; with T24 cells it was 5.42 ± 0.05 µM; in the test on MCF-7 cells it was 12.2 ± 0.32 µM; in the test on Hep G2 cells, 14.1 ± 0.2 µM; in the test on 5637 cells, 6.61 ± 0.07 µM.

Turning to `COc1cc2ncnc(NCc3cccc(NC(=O)NCc4ccccc4)c3)c2cc1OCCCC(=O)N1CCC(N2CCOCC2)CC1` [Compound 8-23, reference compound], the IC50 is more than 30 µM in the test with A549 cells (Homo sapiens, A549); more than 30 µM in the test with T24 cells (Homo sapiens, T-24); 23.1 ± 0.92 µM with MCF-7 cells (Homo sapiens, MCF7); more than 30 µM in the test with Hep G2 cells (Homo sapiens, HepG2); 26.8 ± 0.63 µM with 5637 cells (Homo sapiens).

With `COc1cc2ncnc(NCc3cccc(NC(=O)Nc4ccccc4)c3)c2cc1OC` [Compound I-1, reference compound], the half-maximal inhibitory concentration (IC50) in the test with BxPC-3 cells is 18.6 ± 1.66 µM; with UM-UC-3 cells, more than 30 µM; with PANC-1 cells it was more than 30 µM; in the test on MG-63 cells, 27.1 ± 1.45 µM; in the test on SK-OV-3 cells, 28.4 ± 1.46 µM; in the test with 143B cells, 18.3 ± 1.74 µM.

Turning to `COc1cc2ncnc(NCc3cccc(NC(=O)Nc4ccc(C)cc4)c3)c2cc1OC` [Compound I-2, reference compound], the half-inhibitory concentration (IC50) was 10.3 ± 0.59 µM in the test on BxPC-3 cells; 11.2 ± 0.85 µM in the test on UM-UC-3 cells; 24.4 ± 1.69 µM in the test on PANC-1 cells; 11.2 ± 0.67 µM in the test with MG-63 cells; 10.1 ± 0.69 µM in the test on SK-OV-3 cells; 6.34 ± 0.56 µM with 143B cells.

On to `COc1cc2ncnc(NCc3cccc(NC(=O)Nc4ccc(C)cc4C)c3)c2cc1OC` [Compound I-3, reference compound], for which the IC50 in the test on BxPC-3 cells is 7.78 ± 0.69 µM; in the test with UM-UC-3 cells it was 9.02 ± 0.74 µM; with PANC-1 cells, 17.6 ± 1.48 µM; in the test on MG-63 cells it was 12.1 ± 0.76 µM; in the test with SK-OV-3 cells, 9.17 ± 0.58 µM; in the test on 143B cells, 5.94 ± 0.33 µM.

Regarding `CCc1ccccc1NC(=O)Nc1cccc(CNc2ncnc3cc(OC)c(OC)cc23)c1` [Compound I-5, reference compound], the IC50 in the test on BxPC-3 cells stood at 6.54 ± 0.61 µM; with UM-UC-3 cells, 10.5 ± 0.71 µM; in the test on PANC-1 cells, 12.5 ± 0.97 µM; in the test with MG-63 cells it was 13.4 ± 0.95 µM; in the test with SK-OV-3 cells, 7.76 ± 0.38 µM; in the test with 143B cells it was 6.47 ± 0.28 µM.

For `COc1ccccc1NC(=O)Nc1cccc(CNc2ncnc3cc(OC)c(OC)cc23)c1` [Compound I-6, reference compound], the IC50 with BxPC-3 cells is 23.6 ± 1.47 µM; in the test on UM-UC-3 cells, 20.6 ± 2.37 µM; in the test with PANC-1 cells it was 26.5 ± 2.36 µM; with MG-63 cells, 25.4 ± 1.74 µM; in the test with SK-OV-3 cells, 9.12 ± 0.44 µM; in the test with 143B cells, 19.3 ± 1.67 µM.

Consider `COc1ccc(NC(=O)Nc2cccc(CNc3ncnc4cc(OC)c(OC)cc34)c2)cc1` [Compound I-7, reference compound], for which the IC50 with BxPC-3 cells was 22.8 ± 1.71 µM; in the test on UM-UC-3 cells, 18.6 ± 1.35 µM; with PANC-1 cells, more than 30 µM; in the test with MG-63 cells, more than 30 µM; in the test with SK-OV-3 cells it was 13.7 ± 0.85 µM; in the test with 143B cells it was 21.3 ± 1.59 µM.

Turning to `COc1cc2ncnc(NCc3cccc(NC(=O)Nc4ccc(F)cc4)c3)c2cc1OC` [Compound I-9, reference compound], the IC50 in the test on BxPC-3 cells came to 8.62 ± 0.86 µM; in the test on UM-UC-3 cells, 9.56 ± 0.72 µM; in the test with PANC-1 cells it was 10.7 ± 0.95 µM; in the test with MG-63 cells, 14.8 ± 1.22 µM; with SK-OV-3 cells it was 10 ± 0.53 µM; with 143B cells, 6.11 ± 0.42 µM.

Take `COc1cc2ncnc(NCc3cccc(NC(=O)Nc4ccccc4Cl)c3)c2cc1OC` [Compound I-10, reference compound]: the IC50 with BxPC-3 cells turned out to be 9.85 ± 0.76 µM; in the test with UM-UC-3 cells, 8.77 ± 0.41 µM; with PANC-1 cells it was 11.7 ± 0.82 µM; with MG-63 cells, 11.1 ± 0.54 µM; in the test on SK-OV-3 cells, 11.2 ± 0.92 µM; with 143B cells it was 7.74 ± 0.39 µM.

`COc1cc2ncnc(NCc3cccc(NC(=O)NCc4ccccc4)c3)c2cc1OC` [Compound I-14, reference compound]: the IC50 is 12.3 ± 0.56 µM with BxPC-3 cells; more than 30 µM in the test on UM-UC-3 cells; more than 30 µM in the test on PANC-1 cells; more than 30 µM with MG-63 cells; 19.7 ± 0.73 µM in the test with SK-OV-3 cells; more than 30 µM with 143B cells.

Consider `O=C(Nc1ccccc1)Nc1cccc(CNc2ncnc3ccccc23)c1` [Compound II-1, reference compound], for which the IC50 was 27.6 ± 1.91 µM with BxPC-3 cells; more than 30 µM in the test on UM-UC-3 cells; more than 30 µM in the test with PANC-1 cells; more than 30 µM in the test with MG-63 cells; more than 30 µM with SK-OV-3 cells; more than 30 µM with 143B cells.

Take `Cc1cccc(NC(=O)Nc2cccc(CNc3ncnc4ccccc34)c2)c1` [Compound II-2, reference compound]: the IC50 in the test with BxPC-3 cells is 15.5 ± 1.71 µM; in the test with UM-UC-3 cells it was 22.8 ± 1.38 µM; in the test on PANC-1 cells, more than 30 µM; in the test on MG-63 cells, 19.3 ± 1.76 µM; with SK-OV-3 cells it was 19.5 ± 1.37 µM; in the test with 143B cells it was 13.2 ± 0.86 µM.

For the compound `Cc1ccc(NC(=O)Nc2cccc(CNc3ncnc4ccccc34)c2)cc1` [Compound II-3, reference compound], the IC50 is 14.3 ± 0.86 µM in the test on BxPC-3 cells; 17.8 ± 0.57 µM in the test with UM-UC-3 cells; more than 30 µM in the test with PANC-1 cells; 17.8 ± 0.95 µM in the test on MG-63 cells; 14.7 ± 0.98 µM with SK-OV-3 cells; 11.3 ± 0.88 µM in the test on 143B cells.

As for `CCc1cccc(CC)c1NC(=O)Nc1cccc(CNc2ncnc3ccccc23)c1` [Compound II-5, reference compound], the half-inhibitory concentration (IC50) in the test with BxPC-3 cells came to 9.92 ± 0.41 µM; in the test on UM-UC-3 cells, 8.72 ± 0.36 µM; in the test on PANC-1 cells, 14.8 ± 1.24 µM; in the test on MG-63 cells, 10.5 ± 0.82 µM; in the test on SK-OV-3 cells, 8.4 ± 0.53 µM; in the test on 143B cells, 7.26 ± 0.35 µM.

As a reminder, the IC50 is the concentration that inhibits the measured activity by half.

The record behind these values is patent US20260285816A1, “Piperazinyl-Modified Quinazolinyl-Aryl Urea Derivative, And Preparation Method And Use Thereof” (Guangxi Normal University, priority 2025, published 2026).
